The results in this text go back to patent US20160176867A1, “MODIFIED BET-PROTEIN-INHIBITING DIHYDROQUINOXALINONES AND DIHYDROPYRIDOPYRAZINONES” (BAYER PHARMA AKTIENGESELLSCHAFT, priority 2013, published 2016).

The term IC50 denotes the concentration at which inhibition is half-maximal. Higher therefore signals weaker potency.

SMILES strings stand for the structures.

The target of experiment [1] is T1, BRD4 bromo domain 1 [BRD4(1)] (Homo sapiens, UniProt O60885).
T1 construct: N-terminally His6-tagged BRD4(1) (amino acids 67-152); made in house; host or cells: E. coli
Nature of the experiment: BRD4/acetylated peptide H4 binding assay (TR-FRET), BRD4 bromo domain 1. The note with it: inhibition of BRD4(1)/Ac-H4 peptide interaction. In short, it runs like this:
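TR-FRET (665/620 nm ratio) measuring displacement of biotinylated tetra-acetylated H4 peptide from His6-BRD4(1) (aa 67-152, E. coli; typically 10 nM) at pH 7.5. Compound (11 concentrations, 0.1 nM–20 μM, duplicates) was preincubated 10 min at 22°C, then 1 h at 22°C and ≥3 h at 4°C; IC50 from 4-parameter fit normalized to DMSO and no-BRD4 controls.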
Background: Time-resolved FRET reads energy transfer from a long-lived donor to a nearby acceptor.

The test system of another experiment is MOLP-8 cells. Nature of the experiment: Cell proliferation assay (alamarBlue), MOLP-8. The experiment is classed as cell-based. Particulars: Homo sapiens; MOLP-8 (multiple myeloma), 120 hours. Here is the method: (§1) In accordance with the invention, the ability of the substances to inhibit cell proliferation was determined. Cell viability was determined by means of the alamarBlue® reagent (Invitrogen) in a Victor X3 Multilabel Reader (Perkin Elmer). The excitation wavelength was 530 nm and the emission wavelength […].
The MOLP-8 cells (DSMZ, ACC 569) were sown at a concentration of 4000 cells/well in 100 μl of growth medium (RPMI1640, 20% FCS) on 96-well microtitre plates.
(§2) After overnight incubation at 37° C., the fluorescence values were determined (CI values). Then the plates were treated with various substance dilutions (1E-5 M, 3E-6 M, 1E-6 M, 3E-7 M, 1E-7 M, 3E-8 M, 1E-8 M) and incubated at 37° C. over 96 hours (MOLM-13, B16F10, CHL-1 cells) or 120 hours (MOLP-8 cells). Subsequently, the fluorescence values were determined (CO values). For the data analysis, the CI values were subtracted from the CO values and the results were compared between cells which had been treated with various dilutions of the substance or only with buffer solution. The IC50 values (substance concentration needed for 50% inhibition of cell proliferation) were calculated therefrom.

The test system of a further experiment is CHL-1 cells. Nature of the experiment: Cell proliferation assay (alamarBlue), CHL-1. The note with it: Homo sapiens; CHL-1 (melanoma, BRAF wild-type), 96 hours. The experiment is classed as cell-based. How it is done: as §1
The CHL-1 cells (ATCC, CRL-9446) were sown at a concentration of 1000 cells/well in 100 μl of growth medium (DMEM with glutamine, 10% FCS) on 96-well microtitre plates.
as §2
On the technique in general: Alamar Blue is a resazurin reagent that responds to reducing activity.

As to `C[C@@H]1C(=O)N(C)c2ccc(Nc3cccc(S(=O)(=O)NC4CCN(C)CC4)c3)nc2N1Cc1ccccc1` [Example 33, 3-{[(3R)-4-benzyl-1,3-dimethyl-2-oxo-1,2,3,4-tetrahydropyrido[2,3-b]pyrazin-6-yl]amino}-N-(1-methylpiperidin-4-yl)benzenesulphonamide], the 50% inhibitory concentration (IC50) is 22 nM in experiment [1], 12 nM with MOLP-8 cells and 13 nM with CHL-1 cells.

With `C[C@@H]1C(=O)N(C)c2ccc(Nc3cccc(S(=O)(=O)N4CCN(CC(F)(F)F)CC4)c3)nc2N1C1CCOCC1` [Example 37, (3R)-1,3-dimethyl-4-(tetrahydro-2H-pyran-4-yl)-6-[(3-{[4-(2,2,2-trifluoroethyl)piperazin-1-yl]sulphonyl}phenyl)-amino]-3,4-dihydropyrido-[2,3-b]pyrazin-2(1H)-one], the figures for the 50% inhibitory concentration (IC50) (in experiment [1]; with MOLP-8 cells; in the experiment with CHL-1 cells) were 28 nM, 65 nM and 53 nM, respectively.

With `C[C@@H]1C(=O)N(C)c2ccc(Nc3cccc(S(=O)(=O)N[C@H]4CC[C@H](N5CCN(CC6CC6)CC5)CC4)c3)nc2N1Cc1ccccc1` [Example 38, 3-{[(3R)-4-benzyl-1,3-dimethyl-2-oxo-1,2,3,4-tetrahydropyrido[2,3-b]pyrazin-6-yl]amino}-N-{trans-4-[4-(cyclopropyl-methyl)piperazin-1-yl]cyclohexyl}-benzenesulphonamide], the IC50 in experiment [1] was 19 nM; with MOLP-8 cells it was 12 nM; in the experiment with CHL-1 cells, 19 nM.

Turning to `CNS(=O)(=O)c1cccc(Nc2ccc3c(n2)N(C2CCOCC2)[C@H](C)C(=O)N3C)c1` [Example 39, 3-{[(3R)-1,3-dimethyl-2-oxo-4-(tetrahydro-2H-pyran-4-yl)-1,2,3,4-tetrahydropyrido[2,3-b]pyrazin-6-yl]amino}-N-methylbenzenesulphon-amide], the IC50 stood at 38 nM in experiment [1], 91 nM with MOLP-8 cells and 63 nM in the experiment on CHL-1 cells.

For the compound `COc1ccc(S(=O)(=O)N2CCN(C)CC2)cc1Nc1ccc2c(n1)N(C1CCOCC1)[C@H](C)C(=O)N2C` [Example 40, (3R)-6-({2-methoxy-5-[(4-methylpiperazin-1-yl)sulphonyl]phenyl}-amino)-1,3-dimethyl-4-(tetrahydro-2H-pyran-4-yl)-3,4-dihydropyrido[2,3-b]pyrazin-2(1H)-one], the IC50 was 43 nM in experiment [1], 73 nM with MOLP-8 cells and 56 nM in the experiment with CHL-1 cells.

In the case of `C[C@@H]1C(=O)N(C)c2ccc(Nc3cccc(S(=O)(=O)N(C)C)c3)nc2N1C1CCN(C)CC1` [Example 41, 3-{[(3R)-1,3-dimethyl-4-(1-methylpiperidin-4-yl)-2-oxo-1,2,3,4-tetrahydropyrido[2,3-b]pyrazin-6-yl]amino}-N,N-dimethylbenzene-sulphonamide], the results for the IC50 (in experiment [1]; with MOLP-8 cells; in the experiment on CHL-1 cells) were 20 nM, 17 nM and 21 nM, respectively.

As to `C[C@@H]1C(=O)N(C)c2ccc(Nc3cccc(S(=O)(=O)NCC4CCN(C)CC4)c3)nc2N1C1CCOCC1` [Example 44, 3-{[(3R)-1,3-dimethyl-2-oxo-4-(tetrahydro-2H-pyran-4-yl)-1,2,3,4-tetrahydropyrido[2,3-b]pyrazin-6-yl]amino}-N-[(1-methylpiperidin-4-yl)methyl]benzene-sulphonamide], the results for the IC50 (in experiment [1]; with MOLP-8 cells; with CHL-1 cells) were 50 nM, 335 nM and 362 nM, respectively.

`CC(C)CN1c2nc(Nc3cccc(S(=O)(=O)N[C@H]4CC[C@H](N5CCN(CC6CC6)CC5)CC4)c3)ccc2N(C)C(=O)[C@H]1C` [Example 45, N-{trans-4-[4-(cyclopropylmethyl)-piperazin-1-yl]cyclohexyl}-3-{[(3R)-4-isobulyl-1,3-dimethyl-2-oxo-1,2,3,4-tetrahydropyrido[2,3-b]pyrazin-6-yl]amino}-benzenesulphonamide]: the IC50 in experiment [1] came to 51 nM; in the experiment with MOLP-8 cells, 67 nM; with CHL-1 cells, 81 nM.

With `COc1ccc(S(=O)(=O)N2CCN(C)CC2)cc1Nc1ccc2c(n1)N(C1CCN(C)CC1)[C@H](C)C(=O)N2C` [Example 46, (3R)-6-({2-methoxy-5-[(4-methylpiperazin-1-yl)sulphonyl]phenyl}-amino)-1,3-dimethyl-4-(1-methylpiperidin-4-yl)-3,4-dihydropyrido[2,3-b]pyrazin-2(1H)-one], the IC50 in experiment [1] came out at 51 nM; with MOLP-8 cells, 33 nM; in the experiment on CHL-1 cells, 64 nM.

As for `C[C@@H]1C(=O)N(C)c2ccc(Nc3cccc(S(=O)(=O)N4CCOCC4)c3)nc2N1C1CCN(C)CC1` [Example 47, (3R)-1,3-dimethyl-4-(1-methylpiperidin-4-yl)-6-{[3-(morpholin-4-ylsulphonyl)phenyl]-amino}-3-4-dihydropyrido-[2,3-b]pyrazin-2(1H)-one], the 50% inhibitory concentration (IC50) was found to be 21 nM in experiment [1], 25 nM in the experiment with MOLP-8 cells and 20 nM with CHL-1 cells.

Take `C[C@@H]1C(=O)N(C)c2ccc(Nc3cccc(S(=O)(=O)NC4CCN(C)CC4)c3)nc2N1C1CCCCCC1` [Example 48, 3-{[(3R)-4-cycloheptyl-1,3-dimethyl-2-oxo-1,2,3,4-tetrahydropyrido-[2,3-b]pyrazin-6-yl]amino}-N-(1-methylpiperidin-4-yl)benzenesulphonamide]: the values for the concentration for half-maximal inhibition (IC50) (in experiment [1]; in the experiment on MOLP-8 cells; in the experiment with CHL-1 cells) were 75 nM, 197 nM and 111 nM, respectively.

Turning to `C[C@@H]1C(=O)N(C)c2ccc(Nc3cccc(S(=O)(=O)N4CCN(C)CC4)c3)nc2N1C1CCN(C)CC1` [Example 50, (3R)-1,3-dimethyl-6-({3-[(4-methylpiperazin-1-yl)sulphonyl]phenyl}-amino)-4-(1-methyl-piperidin-4-yl)-3,4-dihydropyrido[2,3-b]pyrazin-2(1H)-one], the IC50 in experiment [1] was found to be 76 nM; with MOLP-8 cells it was 140 nM; in the experiment with CHL-1 cells it was 118 nM.

With `C[C@@H]1C(=O)N(C)c2ccc(Nc3cccc(S(=O)(=O)N[C@H]4CC[C@H](N5CCN(CC6CC6)CC5)CC4)c3)nc2N1C1CCN(C(=O)OC(C)(C)C)CC1` [Example 52, tert-butyl 4-[(3R)-6-{[3-({trans-4-[4-(cyclo-propylmethyl)piperazin-1-yl]cyclohexyl}-sulphamoyl)phenyl]amino}-1,3-dimethyl-2-oxo-2,3-dihydropyrido[2,3-b]pyrazin-4(1H)-yl]piperidine-1-carboxylate], the 50% inhibitory concentration (IC50) in experiment [1] turned out to be 80 nM; in the experiment with MOLP-8 cells, 133 nM; in the experiment on CHL-1 cells, 147 nM.

On to `C[C@@H]1C(=O)N(C)c2ccc(N(C)c3cccc(S(=O)(=O)N(C)C)c3)nc2N1C1CCOCC1` [Example 54, 3-{[(3R)-1,3-dimethyl-2-oxo-4-(tetrahydro-2H-pyran-4-yl)-1,2,3,4-tetrahydropyrido[2,3-b]pyrazin-6-yl](methyl)-amino}-N,N-dimethyl-benzenesulphonamide], for which the values for the IC50 (in experiment [1]; with MOLP-8 cells; in the experiment on CHL-1 cells) were 106 nM, 247 nM and 156 nM, respectively.

Consider `C[C@@H]1C(=O)N(C)c2ccc(Nc3ccc4c(c3)S(=O)(=O)NC4)nc2N1C1CCOCC1` [Example 56, (3R)-6-[(1,1-dioxido-2,3-dihydro-1,2-benzothiazol-6-yl)amino]-1,3-dimethyl-4-(tetrahydro-2H-pyran-4-yl)-3,4-dihydropyrido[2,3-b]pyrazin-2(1H)-one], for which the IC50 worked out at 112 nM in experiment [1], 214 nM with MOLP-8 cells and 181 nM in the experiment with CHL-1 cells.
